The values that follow come from patent publication US20260234144A1 (TAY THERAPEUTICS LIMITED, priority 2023, published 2026).

The test has as its system R223X stop codon in the mutated luciferase gene, ADXC8 luciferase reporter cell line. Briefly: cells. It is filed as cell-based. As to conditions: ADXC8 cells, 24 hours; for Emax / EC (100% of 200 uM G418 response): 24 h; for Emax: read-out: Fold Over Control, maximum fold response relative to 200 μM G418; for EC (100% of 200 uM G418 response): read-out: pC100%, negative logarithm of the concentration giving the same response as 200 μM G418.

Each structure is given as a SMILES string. Where only a bound is given, the exact number is not on record here.

Regarding `Cc1cc(C)c2c(NCCn3ccnc3)nc(NC3CCN(C)CC3)nc2n1` [Example 316], the Emax was 0 to 100% and the EC (100% of 200 uM G418 response) was above 31.6 µM.

With `CNc1nc(N[C@H]2CN(C(C)C)C[C@H]2F)nc2nc(C)cc(C)c12` [Example 523, N^2-((3S,4R)-4-fluoro-1-isopropylpyrrolidin-3-yl)-N^4,5,7-trimethylpyrido[2,3-d]pyrimidine-2,4-diamine], the Emax was 100 to 3000% and the EC (100% of 200 uM G418 response) lay in the range of 1 to 10 µM.

Turning to `Cc1cc(C)c2c(N)nc(NCCN(C)C)nc2n1` [Example 142, N^2-(2-(dimethylamino)ethyl)-5,7-dimethylpyrido[2,3-d]pyrimidine-2,4-diamine], the EC (100% of 200 uM G418 response) was 1 to 10 µM.

Consider `Cc1cc(C)c2c(NCc3ccccn3)nc(NC3CCN(C)CC3)nc2n1` [Example 317], for which the Emax is 100 to 3000% and the EC (100% of 200 uM G418 response) was in the range of 10 to 100 µM.

For the compound `CNc1nc(N[C@H]2CNC[C@@H]2F)nc2nc(C)c3c(c12)CCC3` [Example 346], the Emax was 100 to 3000% and the EC (100% of 200 uM G418 response) was in the range of 0.1 to 1 µM.

With `CN1CCC(Nc2nc(N)c3ccc(-c4cccc(N)c4)nc3n2)CC1` [Example 93], the Emax lay in the range of 100 to 3000% and the EC (100% of 200 uM G418 response) was 10 to 100 µM.

For `CN1CCC(Nc2nc(N)c3ccc(-c4cccc(C(=O)O)c4)nc3n2)CC1` [Example 83], the Emax is 0 to 100% and the EC (100% of 200 uM G418 response) is above 100 µM.

Take `CNc1cc(N[C@H]2CNC[C@H]2OC)nc2nc3c(c(C)c12)CCC3` [Example 617]: the Emax was 100 to 3000% and the EC (100% of 200 uM G418 response) is 1 to 10 µM.

On to `CN1CCC(Nc2nc(N)c3ccc(-c4ccnnc4)nc3n2)CC1` [Example 61], for which the Emax is 0 to 100% and the EC (100% of 200 uM G418 response) is above 100 µM.

In the case of `Cc1cc(C)c2c(N)nc(NC3CC4(CCNCC4)C3)nc2n1` [Example 200], the Emax lay in the range of 0 to 100% and the EC (100% of 200 uM G418 response) is above 31.6 µM.

In the case of `Cc1cc(C)c2c(N)nc(NC3CCN(Cc4cccc(CO)c4)CC3)nc2n1` [Example 482], the Emax lay in the range of 100 to 3000% and the EC (100% of 200 uM G418 response) lay in the range of 10 to 100 µM.

On to `Cc1cc(C)c2c(N)nc(NC3CCN(Cc4ccccc4)CC3)nc2n1` [Example 158], for which the Emax was 100 to 3000% and the EC (100% of 200 uM G418 response) lay within 0.1 to 1 µM.

`CNc1nc(N[C@H]2CN[C@H](COC)C2)nc2nc(C)cc(C)c12` [Example 414]: the EC (100% of 200 uM G418 response) lay within 1 to 10 µM.

As to `Cc1cc(C)c2c(N)nc(NC3CCN(Cc4cccc(S(C)(=O)=O)c4)CC3)nc2n1` [Example 496], the Emax is 100 to 3000% and the EC (100% of 200 uM G418 response) was 10 to 100 µM.

Regarding `Cc1cc(C)c2c(N)nc(NC[C@@H]3CCNC3)nc2n1` [Example 217], the EC (100% of 200 uM G418 response) is 1 to 10 µM.

Consider `Cc1cc(C)c2c(N)nc(NC3CCNC[C@@H]3F)nc2n1` (stereo partly drawn) [Example 206], for which the Emax fell in the range of 100 to 3000% and the EC (100% of 200 uM G418 response) was in the range of 1 to 10 µM.

For `Cc1ccc(-c2ccc3c(N)nc(NC4CCN(C)CC4)nc3n2)cc1` [Example 101], the EC (100% of 200 uM G418 response) lay in the range of 1 to 10 µM.

Consider `Cc1cc(C)c2c(N)nc(NC3CCN(Cc4ccns4)CC3)nc2n1` [Example 467], for which the Emax lay in the range of 100 to 3000% and the EC (100% of 200 uM G418 response) fell in the range of 1 to 10 µM.

In the case of `CNc1nc(N[C@@H]2CCCN(Cc3ccccc3)C2)nc2nc(C)cc(C)c12` [Example 399], the Emax was 100 to 3000% and the EC (100% of 200 uM G418 response) lay within 1 to 10 µM.

`Cc1cc(C)c2c(N)nc(NC3CCN(Cc4cc(C(F)(F)F)ccc4O)CC3)nc2n1` [Example 541]: the Emax lay within 0 to 100% and the EC (100% of 200 uM G418 response) was above 31.6 µM.

As for `CN1CCC(Nc2nc(N)c3ccc(-c4ccccc4C(F)(F)F)nc3n2)CC1` [Example 90], the Emax lay in the range of 100 to 3000% and the EC (100% of 200 uM G418 response) was in the range of 10 to 100 µM.

On to `CNc1nc(NC2C[C@@H]3CCC2N3)nc2nc(C)cc(C)c12` (stereo partly drawn) [Example 383], for which the EC (100% of 200 uM G418 response) was 1 to 10 µM.

As to `Cc1cc(C)c2c(N)nc(NC3CCN(Cc4ccc(C#N)cc4C(F)F)CC3)nc2n1` [Example 508, 4-((4-((4-amino-5,7-dimethylpyrido[2,3-d]pyrimidin-2-yl)amino)piperidin-1-yl)methyl)-3-(difluoromethyl)benzonitrile], the Emax is 100 to 3000% and the EC (100% of 200 uM G418 response) lay in the range of 1 to 10 µM.

As to `Cc1cc(C)c2c(N)nc(NC3CC4CNCC4C3)nc2n1` (stereo not drawn) [Example 205], the Emax lay within 100 to 3000% and the EC (100% of 200 uM G418 response) lay within 1 to 10 µM.

`Cc1cc(C)c2c(N)nc(N[C@H]3CCNC[C@H]3F)nc2n1` [Example 587]: the Emax fell in the range of 100 to 3000% and the EC (100% of 200 uM G418 response) lay in the range of 1 to 10 µM.

In the case of `CNc1nc(N[C@@H]2CCN(C)C2)nc2nc(OC)cc(C)c12` [Example 616], the Emax fell in the range of 100 to 3000% and the EC (100% of 200 uM G418 response) was in the range of 1 to 10 µM.

On to `CNCCCNc1nc(N)c2c(C)cc(C)nc2n1` [Example 280], for which the EC (100% of 200 uM G418 response) lay within 1 to 10 µM.

`CNS(=O)(=O)c1ccc(CN2CCC(Nc3nc(N)c4c(C)c5c(nc4n3)CCC5)CC2)cc1` [Example 666]: the Emax is 100 to 3000% and the EC (100% of 200 uM G418 response) is 1 to 10 µM.

As for `Cc1cc(C)c2c(N)nc(N[C@H]3CCN(Cc4ccc(C#N)cc4)C[C@@H]3F)nc2n1` [Example 574], the Emax was in the range of 100 to 3000% and the EC (100% of 200 uM G418 response) is 10 to 100 µM.

As to `CN1CCC(Nc2nc(N)c3cc(-c4ccn[nH]4)cnc3n2)CC1` [Example 646], the Emax fell in the range of 0 to 100% and the EC (100% of 200 uM G418 response) was above 100 µM.

For `[2H]C([2H])([2H])Nc1nc(N[C@H]2CN(C)C[C@@H]2O)nc2nc3c(c(C)c12)CCC3` [Example 509, (3S,4S)-1-(methyl-d3)-4-((5-methyl-4-((methyl-da)amino)-7,8-dihydro-6H-cyclopenta[5,6]pyrido[2,3-d]pyrimidin-2-yl)amino)pyrrolidin-3-ol], the EC (100% of 200 uM G418 response) fell in the range of 0.01 to 0.1 µM.

As to `CNc1nc(N[C@H]2C[C@@H](C)N(C)C2)nc2nc(C)cc(C)c12` [Example 371], the Emax fell in the range of 100 to 3000% and the EC (100% of 200 uM G418 response) was in the range of 10 to 100 µM.

In the case of `CNc1nc(NCC2CN3CCC2C3)nc2nc(C)cc(C)c12` (stereo not drawn) [Example 404], the Emax was 0 to 100% and the EC (100% of 200 uM G418 response) was above 31.6 µM.

Regarding `Cc1cc(C)c2c(N)nc(N[C@@H]3CNC[C@H]3F)nc2n1` [Example 297], the Emax was 100 to 3000% and the EC (100% of 200 uM G418 response) was 10 to 100 µM.

For `CNc1cc(N[C@H]2CN(C)C[C@@H]2F)nc2nc3c(c(C)c12)CCC3` [Example 634], the Emax is 100 to 3000% and the EC (100% of 200 uM G418 response) was 0.1 to 1 µM.

In the case of `COC(=O)c1cnc2nc(NC3CCN(C)CC3)nc(N)c2c1` [Example 122, methyl 4-amino-2-[(1-methylpiperidin-4-yl)amino]pyrido[2,3-d]pyrimidine-6-carboxylate], the Emax was in the range of 0 to 100% and the EC (100% of 200 uM G418 response) was above 100 µM.

For `Cc1cc(C)c2c(N)nc(NC3CCN(Cc4c(F)cccc4F)CC3)nc2n1` [Example 479], the Emax is 100 to 3000% and the EC (100% of 200 uM G418 response) lay in the range of 1 to 10 µM.

`CC(=O)c1ccnc2nc(NC3CCN(C)CC3)nc(N)c12` [Example 309]: the Emax was in the range of 0 to 100% and the EC (100% of 200 uM G418 response) was above 100 µM.

`CNc1nc(N[C@H]2CNC[C@H](O)C2)nc2nc(C)cc(C)c12` [Example 611]: the EC (100% of 200 uM G418 response) was in the range of 0.1 to 1 µM.

Regarding `CSc1ccc(-c2ccc3c(N)nc(NC4CCN(C)CC4)nc3n2)cc1` [Example 103], the EC (100% of 200 uM G418 response) lay within 1 to 10 µM.

For the compound `COc1ccccc1-c1ccc2c(N)nc(NC3CCN(C)CC3)nc2n1` [Example 50], the EC (100% of 200 uM G418 response) was 1 to 10 µM.

Regarding `CNc1nc(N[C@H]2CNC[C@H]2CO)nc2nc(C)cc(C)c12` [Example 418], the EC (100% of 200 uM G418 response) lay within 1 to 10 µM.

Consider `Cc1cc(C)c2c(N)nc(NC3CCN(Cc4cccc(C(F)(F)F)c4)CC3)nc2n1` [Example 492], for which the Emax was in the range of 100 to 3000% and the EC (100% of 200 uM G418 response) is 10 to 100 µM.

`Cc1cc(C)c2c(N)nc(N[C@H]3CN4CCC3CC4)nc2n1` [Example 198]: the Emax lay within 0 to 100% and the EC (100% of 200 uM G418 response) was above 31.6 µM.

In the case of `CNc1nc(NC2C3CCC2CN(C(C)C)C3)nc2nc(C)cc(C)c12` (single isomer, unassigned) [Example 436], the “Fold Over Control” value (maximum fold response relative to 200 μM G418) is on record as “## (Fold over Ctrl > 1 ≤ 30)”. Under “negative logarithm of the concentration giving the same response as 200 μM G418”, the pC100% entry is “+ (pC100% > 4.0 ≤ 5.0)”.

With `Cc1cc(C)c2c(N)nc(N[C@@H]3CCN(C)C3)nc2n1` [Example 14, (R)-5,7-dimethyl-N^2-(1-methylpyrrolidin-3-yl)pyrido[2,3-d]pyrimidine-2,4-diamine], the Emax is 100 to 3000% and the EC (100% of 200 uM G418 response) lay in the range of 1 to 10 µM.

For the compound `Cc1c2c(nc3nc(NC4CCN(Cc5ccccc5O)CC4)cc(N)c13)CCC2` [Example 680], the Emax lay in the range of 100 to 3000% and the EC (100% of 200 uM G418 response) was 0.01 to 0.1 µM.

As for `Cc1cc(C)c2c(N)nc(NC3CCN(Cc4ccncc4O)CC3)nc2n1` [Example 564], the Emax was in the range of 100 to 3000% and the EC (100% of 200 uM G418 response) was in the range of 1 to 10 µM.

Take `Cc1cc(C)c2c(N)nc(N[C@H]3CCCNC3)nc2n1` [Example 352]: the Emax fell in the range of 100 to 3000% and the EC (100% of 200 uM G418 response) was 10 to 100 µM.

`CN1CCC(Nc2nc(N)c3c(C#N)ccnc3n2)CC1` [Example 250, 4-amino-2-((1-methylpiperidin-4-yl)amino)pyrido[2,3-d]pyrimidine-5-carbonitrile]: the Emax is 0 to 100% and the EC (100% of 200 uM G418 response) is above 100 µM.

As to `COc1cccc(CN2CCC(Nc3nc(N)c4c(C)cc(C)nc4n3)CC2)c1` [Example 494], the Emax is 100 to 3000% and the EC (100% of 200 uM G418 response) lay in the range of 1 to 10 µM.

Regarding `CC(C)c1ccc2c(N)nc(NC3CCN(C)CC3)nc2n1` [Example 239, 7-isopropyl-N^2-(1-methylpiperidin-4-yl)pyrido[2,3-d]pyrimidine-2,4-diamine], the Emax fell in the range of 100 to 3000% and the EC (100% of 200 uM G418 response) was in the range of 1 to 10 µM.
